# Assay results reported in PMC9652379, “Safety evaluations of a synthetic antimicrobial peptide administered intravenously in rats and dogs” (Scientific Reports, 2022).
# Positions of bridges follow the written chain, without caps; N, C: chain ends. Non-standard residues stand in square brackets, D forms with d. Residues, ends and D or L forms follow the SMILES beside them. Chains are numbered I, II in the order given. βAla = NCCC(=O)O
# Experiments:
# [1] = Dose range finding in rats: toxicokinetics; assay type: in vivo, rat; conditions: for quantifiable plasma concentrations until, post-dose: rat, in vivo; for mean AUCt ratio, low vs. high dose (theoretical ratio 2) / mean Cmax ratio, low vs. high dose (theoretical ratio 2): rats, 10 vs 20 mg/kg/day iv bolus
# Method: SET-M33 concentration was determined after administration by intravenous bolus for 7 days at 10 mg/kg/day and 20 mg/kg/day. Exposure parameters (AUCt and Cmax) were compared in order to evaluate dose-dependency, accumulation ratio and sex-related differences. […] Mean plasma levels of SET-M33 increased in parallel with dose in males and females. Mean time to maximum concentrations (tmax) were observed immediately after administration, 5 min post-dose for both periods (days 1 and 7) and sexes, coherently with intravenous bolus administration.
# Blood samples were collected from the retro-orbital plexus of animals under light isoflurane anaesthesia. Blood samples were taken from three males and three females at each extraction time. Sampling times were as follows: Day 1: 5, 15, 30 and 60 min after administration. Day 7: pre-dose and 5, 15, 30, 60 min and 24 h after administration. Control animals were bled only once on days 1 and 7 of treatment at 30 min after treatment. Each blood sample was collected into a polypropylene test tube containing lithium heparin as anticoagulant and kept in an ice bath until centrifuging (1600 g for 10 min at 2–8 °C). The plasma from each sample was transferred to a fresh polypropylene test tube, immediately frozen in dry ice and stored at − 20 °C ± 5.
# Sprague Dawley rats = assay: Four-week toxicity study with 2-week recovery in rats: mortality, clinical signs, body weight; assay type: in vivo, rat; conditions: for weight loss of euthanized animal: 15 mg/kg/day
# Method: The purpose of this study was to evaluate the toxic effects of SET-M33 when administered intravenously to Sprague Dawley rats for 4 weeks. Recovery was evaluated during a 14-day drug-free period. The peptide was administered once a day at three dose levels at 5, 9 and 15 mg/kg/day, and the control group was treated with the vehicle (ten males and ten females per group which were sacrificed after 4 weeks for clinical and necroscopy analyses; five males and five females for the control and 15 mg/kg/day groups which were sacrificed after the 2 weeks recovery period). The higher dose was selected on the basis of the DRF study (above) in which evident toxicity was recorded at the dose of 20 mg/kg. The efficacy dose in mouse is 5 mg/kg[24]. The lowest dose of this test is approximately twice the equivalent efficacy dose in rat (using body surface area) and the intermediate dose is approximately the geometric mean of the other two.
# One male died on day 8 and one male and one female were euthanized for animal welfare reasons on days 6 and 10 of the recovery period, respectively, after showing various clinical signs (hunched back, abnormal gait and pallor) and weight loss of 14% and 11%, respectively. SET-M33-related effects consisting of decreased motor activity, irregular breathing, piloerection, closed or partially closed eyelids, abnormal gait and hunched back were recorded in animals treated at 15 mg/kg/day just after administration for the whole treatment period (as in the DRF study above). […] Among animals that had to be sacrificed for welfare reasons, abnormal gait, partially closed eyelids (the male) and decreased motor activity and piloerection (the female) were also recorded from day 3 onwards. […] During the recovery period, body-weight loss (between 2 and 14% based on individual values) was recorded in some animals dosed at 15 mg/kg/day.
# Viability/mortality was monitored twice daily throughout the study. Detailed clinical signs were evaluated once at pre-test, once/twice daily during the treatment period and on days 1, 8, 10 to 14 of the recovery period. […]
# beagle dogs = assay: Four-week toxicity study in dogs: necroscopy, organ weights, microscopic findings; assay type: in vivo, dog; conditions: for Kidney: degeneration/regeneration, tubules, minimal (incidence): 4-week dosing; for Kidney: regeneration, tubules, minimal (incidence): 4-week recovery period
# Method: These higher weights were correlated microscopically with minimal tubule degeneration/regeneration and minimal interstitial cell infiltrates. There were no other SET-M33-related organ weight changes (Table 6). There were no organ weight changes at recovery sacrifice, or macroscopic findings at terminal and recovery necroscopy. […] The kidney findings included minimal tubule degeneration/regeneration at 1.5 mg/kg/day and 4 mg/kg/day in males, and at 4.0 mg/kg/day in females, and minimal interstitial cell infiltrate in both sexes at a dose of 4.0 mg/kg/day. Degeneration featured vacuolation, cell sloughing and/or tinctorial change, and regeneration was characterized by increased basophilia, nuclear crowding and/or increased mitoses of cortical tubule epithelial cells. Regenerative changes were typically more pronounced than degenerative changes. SET-M33-related microscopic findings in kidney were correlated with higher kidney weights (absolute and relative to body and brain weight) and elevated BUN and creatinine in both sexes at 4.0 mg/kg/day. […] After the 4-week recovery period, kidney interstitial infiltrates cleared completely and tubule degeneration/regeneration resolved almost completely. At the infusion sites, there was complete recovery from vascular/perivascular inflammation and tunica intima hypertrophy/hyperplasia with partial recovery from vascular thrombi and hypertrophy/hyperplasia of the tunica media. Minimal regeneration of cortical tubule epithelial cells, observed in the kidneys of 1 female at a dose of 4.0 mg/kg/day, was considered to be due to a repair process, and a slight thrombus observed at the infusion site (saphenous vein) of another female was also in line with ongoing repair.
# Complete macroscopic examination was performed on all animals, including examination of the external surface and all orifices; the external surfaces of the brain and spinal cord; the organs and tissues of the cranial, thoracic, abdominal and pelvic cavities and neck; and the rest of the carcass for macroscopic morphological abnormalities. Necropsy was performed on up to 3 animals/sex/group after treatment for 4 weeks and on 2 animals/sex/group after a 4-week treatment-free recovery period. Organs and tissues were weighed, preserved and examined microscopically. Prior to weighing, organs were carefully dissected and properly trimmed to remove adipose and other contiguous tissue in a uniform manner. Organs were weighed as soon as possible after dissection in order to avoid drying. Paired organs were weighed together. Eyes, optic nerve and testes were initially placed in Modified Davidson’s solution and then kept in 10% neutral buffered formalin (NBF). Lungs and urinary bladder were infused with 10% NBF prior to immersion in a larger volume of the same fixative. All other tissues were preserved in 10% NBF.
structure (smiles),measurement,setting,value
"CC[C@H](C)[C@H](NC(=O)[C@H](CCCCN)NC(=O)[C@@H](N)CCCCN)C(=O)N[C@@H](CCCNC(=N)N)C(=O)N[C@H](C(=O)N[C@@H](CCCNC(=N)N)C(=O)N[C@@H](CC(C)C)C(=O)N[C@@H](CO)C(=O)N[C@@H](C)C(=O)NCCCC[C@H](NC(=O)[C@H](C)NC(=O)[C@H](CO)NC(=O)[C@H](CC(C)C)NC(=O)[C@H](CCCNC(=N)N)NC(=O)[C@@H](NC(=O)[C@H](CCCNC(=N)N)NC(=O)[C@@H](NC(=O)[C@H](CCCCN)NC(=O)[C@@H](N)CCCCN)[C@@H](C)CC)C(C)C)C(=O)NCCCC[C@H](NC(=O)[C@H](CCCCNC(=O)[C@H](C)NC(=O)[C@H](CO)NC(=O)[C@H](CC(C)C)NC(=O)[C@H](CCCNC(=N)N)NC(=O)[C@@H](NC(=O)[C@H](CCCNC(=N)N)NC(=O)[C@@H](NC(=O)[C@H](CCCCN)NC(=O)[C@@H](N)CCCCN)[C@@H](C)CC)C(C)C)NC(=O)[C@H](C)NC(=O)[C@H](CO)NC(=O)[C@H](CC(C)C)NC(=O)[C@H](CCCNC(=N)N)NC(=O)[C@@H](NC(=O)[C@H](CCCNC(=N)N)NC(=O)[C@@H](NC(=O)[C@H](CCCCN)NC(=O)[C@@H](N)CCCCN)[C@@H](C)CC)C(C)C)C(=O)NCCC(=O)O)C(C)C [SET-M33] (I: H-KKIRVRLSAKK[βAla]-OH / II: H-KKIRVRLSAK / III: H-KKIRVRLSA / IV: H-KKIRVRLSA; amide I:10-IV:C, I:11-II:C, II:10-III:C (inferred); N-terminus and C-terminus assumed)","quantifiable plasma concentrations until, post-dose",[1],1 h
same,"quantifiable plasma concentrations until, post-dose","[1]; iv, 10 mg/kg/day",0.5 to 1 h
same,"quantifiable plasma concentrations until, post-dose","[1]; iv, 20 mg/kg/day",up to 24 h
same,"mean AUCt ratio, low vs. high dose (theoretical ratio 2)",[1]; day 1,2.2
same,"mean Cmax ratio, low vs. high dose (theoretical ratio 2)",[1]; day 1,2.4 to 2.7
same,"mean AUCt ratio, low vs. high dose (theoretical ratio 2)",[1]; day 7,9.8–14.0
same,"mean Cmax ratio, low vs. high dose (theoretical ratio 2)",[1]; day 7,2.8–7.2
same,weight loss of euthanized animal,"Sprague Dawley rats; one female rat, euthanized day 10 of recovery",11%
same,weight loss of euthanized animal,"Sprague Dawley rats; one male rat, euthanized day 6 of recovery",14%
same,mortality,"Sprague Dawley rats; rats, 5, 9 and 15 mg/kg/day iv 4 weeks + 2-week recovery",Mortality was only recorded at 15 mg/kg/day
same,"Infusion site (combined incidence, four sites): haemorrhage, vascular/perivascular, minimal","beagle dogs; dog, in vivo, 0.5 mg/kg/day",1
same,"Infusion site (combined incidence, four sites): haemorrhage, vascular/perivascular, moderate","beagle dogs; dog, in vivo, 0.5 mg/kg/day",0
same,"Infusion site (combined incidence, four sites): haemorrhage, vascular/perivascular, slight","beagle dogs; dog, in vivo, 0.5 mg/kg/day",1
same,"Infusion site (combined incidence, four sites): haemorrhage, vascular/perivascular, total","beagle dogs; dog, in vivo, 0.5 mg/kg/day",2
same,"Infusion site (combined incidence, four sites): hypertrophy/hyperplasia, tunica intima, minimal","beagle dogs; dog, in vivo, 0.5 mg/kg/day",0
same,"Infusion site (combined incidence, four sites): hypertrophy/hyperplasia, tunica media, minimal","beagle dogs; dog, in vivo, 0.5 mg/kg/day",0
same,"Infusion site (combined incidence, four sites): inflammation, vascular/perivascular, moderate","beagle dogs; dog, in vivo, 0.5 mg/kg/day",0
same,"Infusion site (combined incidence, four sites): thrombus, blood vessels, high","beagle dogs; dog, in vivo, 0.5 mg/kg/day",0
same,"Infusion site (combined incidence, four sites): thrombus, blood vessels, moderate","beagle dogs; dog, in vivo, 0.5 mg/kg/day",0
same,"Kidney: infiltrate, interstitium, minimal (incidence)","beagle dogs; dog, in vivo, 0.5 mg/kg/day",0
same,"Infusion site (combined incidence, four sites): haemorrhage, vascular/perivascular, slight","beagle dogs; dog, in vivo, 1.5 mg/kg/day",0
same,"Infusion site (combined incidence, four sites): hypertrophy/hyperplasia, tunica intima, minimal","beagle dogs; dog, in vivo, 1.5 mg/kg/day",0
same,"Infusion site (combined incidence, four sites): hypertrophy/hyperplasia, tunica media, minimal","beagle dogs; dog, in vivo, 1.5 mg/kg/day",0
same,"Infusion site (combined incidence, four sites): inflammation, vascular/perivascular, moderate","beagle dogs; dog, in vivo, 1.5 mg/kg/day",0
same,"Infusion site (combined incidence, four sites): thrombus, blood vessels, high","beagle dogs; dog, in vivo, 1.5 mg/kg/day",0
same,"Infusion site (combined incidence, four sites): thrombus, blood vessels, minimal","beagle dogs; dog, in vivo, 1.5 mg/kg/day",0
same,"Infusion site (combined incidence, four sites): thrombus, blood vessels, slight","beagle dogs; dog, in vivo, 1.5 mg/kg/day",0
same,"Infusion site (combined incidence, four sites): haemorrhage, vascular/perivascular, moderate","beagle dogs; dog, in vivo, 4 mg/kg/day",0
same,"Infusion site (combined incidence, four sites): hypertrophy/hyperplasia, tunica intima, minimal","beagle dogs; dog, in vivo, 4 mg/kg/day",0
same,"Infusion site (combined incidence, four sites): hypertrophy/hyperplasia, tunica intima, slight","beagle dogs; dog, in vivo, 4 mg/kg/day",0
same,"Infusion site (combined incidence, four sites): hypertrophy/hyperplasia, tunica intima, total","beagle dogs; dog, in vivo, 4 mg/kg/day",0
same,"Infusion site (combined incidence, four sites): thrombus, blood vessels, minimal","beagle dogs; dog, in vivo, 4 mg/kg/day",0
same,"Infusion site (combined incidence, four sites): thrombus, blood vessels, moderate","beagle dogs; dog, in vivo, 4 mg/kg/day",5
same,"Kidney: degeneration/regeneration, tubules, minimal (incidence)","beagle dogs; female dogs, 0.5 mg/kg/day",0
same,"Kidney: regeneration, tubules, minimal (incidence)","beagle dogs; female dogs, 0.5 mg/kg/day",0
same,"Kidney: degeneration/regeneration, tubules, minimal (incidence)","beagle dogs; female dogs, 1.5 mg/kg/day",0
same,"Kidney: regeneration, tubules, minimal (incidence)","beagle dogs; female dogs, 1.5 mg/kg/day",0
same,"Kidney: degeneration/regeneration, tubules, minimal (incidence)","beagle dogs; female dogs, 4.0 mg/kg/day",2
same,"Kidney: regeneration, tubules, minimal (incidence)","beagle dogs; female dogs, 4.0 mg/kg/day",1
same,"Kidney: degeneration/regeneration, tubules, minimal (incidence)","beagle dogs; male dogs, 0.5 mg/kg/day",2
same,"Kidney: regeneration, tubules, minimal (incidence)","beagle dogs; male dogs, 0.5 mg/kg/day",0
same,"Kidney: degeneration/regeneration, tubules, minimal (incidence)","beagle dogs; male dogs, 1.5 mg/kg/day",3
same,"Kidney: regeneration, tubules, minimal (incidence)","beagle dogs; male dogs, 1.5 mg/kg/day",0
same,"Kidney: degeneration/regeneration, tubules, minimal (incidence)","beagle dogs; male dogs, 4.0 mg/kg/day",0
same,"Kidney: regeneration, tubules, minimal (incidence)","beagle dogs; male dogs, 4.0 mg/kg/day",0
